The record followed here is patent publication US9226929B2, “Pharmaceutically active disubstituted triazine derivatives” (Bayer Intellectual Property GMBH, priority 2011, dated 2016).

Each structure is given as a SMILES string. pKd: −log10 of the molar value. Bounds are passed on as bounds.

One test has as its target T1, CDK9/Cyclin T1 (Homo sapiens, UniProt P50750).
T1 construct: His; purchased Invitrogen
Put plainly: LanthaScreen Eu Kinase Binding Assay, CDK9/Cyclin T1. The settings on record: tracer 236, read-out: CDK9/Cyclin T1 (activity range), Kd. The protocol: (§1) This protocol describes how the LanthaScreen Eu Kinase Binding Assay was performed to determine dissociation constants (Kd) of compounds of general formula (I) and CDK/Cyclin complexes. The principle behind this assay is based upon the binding and displacement of an Alexa Fluor 647-labeled tracer, which binds to the active site of kinases. Binding of the tracer to the kinase is detected using a Eu-labeled antibody. Simultaneous binding of both the tracer and antibody to the kinase gives rise to a FRET-signal. Binding of an inhibitor to the kinase competes for binding with the tracer, resulting in a loss of FRET.
(§2) The compounds of general formula (I) summarized in Table 1 were diluted from a 10 mM DMSO stock solution 1:10 in a total volume of 15 μL DMSO. This compound predilution was then serial diluted 1:3 over 8 steps in DMSO and briefly spun down. Each compound solution was now diluted 1:33.33 in kinase buffer (HEPES: 20 mM, pH: 8.0; MgCl2: 10 mM; DTT: 1 mM; Brij-35: 0,01%), mixed thoroughly and spun down. For every sample, 5 μL of the diluted compound were mixed with 5 μL tracer working solution (e.g. 60 nM tracer 236 in kinase buffer for CDK2/Cyclin A) and 5 μL CDK/Cyclin/Anti-GST-AB-working solution (e.g. 15 nM CDK2/Cyclin A, 1:250 dilution of Anti-GST-AB in kinase buffer) in a well of a small volume 384 well plate (Corning Incorporated, Corning, N.Y., USA; order no. 3673). The tracer concentration was adjusted to its dissociation constant (Kd) for the CDK/Cyclin, which was 30 nM for CDK2/Cyclin A, CDK7/Cyclin H and CDK9/Cyclin T1, 20 nM for CDK8/Cyclin C, and 35 nM for CDK9/Cyclin K. For negative controls, in each well 5 μL of DMSO working solution (3% DMSO diluted in kinase buffer) was mixed with 5 μL Anti-GST-AB working solution (e.g. 1:250 dilution of Anti-GST-AB in kinase buffer for CDK2/Cyclin A) and 5 μL Tracer working solution (e.g. 60 nM Tracer 236 in kinase buffer for CDK2/Cyclin A). For positive controls, in each well 5 μL of DMSO working solution (3% DMSO diluted in kinase buffer) was mixed with 5 μL CDK/Cyclin/Anti-GST-AB-working solution: (e.g. 15 nM CDK2/Cyclin A, 1:250 dilution of Anti-GST-AB in kinase buffer) and 5 μL Tracer working solution (e.g. 60 nM Tracer 236 in kinase buffer for CDK2/Cyclin A). Positive and negative controls were calculated from at least 8 different sample wells. The 384 well plates were mixed in a Teleshaker plate mixer (Beckman Coulter, Brea, Calif., USA) at 2000 rpm for 40 sec, and incubated for 1 h at room temperature before reading. The FRET signal was measured at 340 nm excitation, 665 nm and 615 nm emission (for the kinase tracer and LanthaScreen Eu-AB, respectively) with an Envision spectrophotometer (Perkin Elmer, Waltham, Mass., USA) with […]. Kd values were determined from the sigmoidal dose response curves with the software Quattro Workflow (Quattro GmbH, Munich, Germany).
For orientation: Time-resolved FRET reads energy transfer from a long-lived donor to a nearby acceptor.

The target in another test is T2, CDK9/Cyclin K (Homo sapiens, UniProt P50750).
T2 construct: His; purchased Invitrogen
Put plainly: LanthaScreen Eu Kinase Binding Assay, CDK9/Cyclin K. The conditions noted are these: tracer 236, read-out: CDK9/Cyclin K (activity range), Kd. The protocol: as §1, §2

For another test, the target named is T3, CDK7/CyclinH/MAT1 (Homo sapiens, UniProt P50613).
T3 construct: His; purchased Carna Biosciences
Put plainly: LanthaScreen Eu Kinase Binding Assay, CDK7. The settings on record: tracer 236, read-out: CDK7 (activity range), Kd. The protocol:
as §1, §2

T3 sequence (P50613 whole entry): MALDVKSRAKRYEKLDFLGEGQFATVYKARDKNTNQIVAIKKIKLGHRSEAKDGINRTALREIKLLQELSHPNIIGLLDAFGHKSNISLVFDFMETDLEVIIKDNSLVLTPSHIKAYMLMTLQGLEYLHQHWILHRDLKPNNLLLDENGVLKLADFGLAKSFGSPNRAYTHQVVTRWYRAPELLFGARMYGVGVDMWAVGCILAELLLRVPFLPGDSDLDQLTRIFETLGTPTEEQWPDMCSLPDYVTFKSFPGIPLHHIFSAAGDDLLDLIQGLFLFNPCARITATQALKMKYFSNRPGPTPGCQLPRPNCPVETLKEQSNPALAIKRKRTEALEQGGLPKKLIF
T3 sequence (P51946 whole entry partner): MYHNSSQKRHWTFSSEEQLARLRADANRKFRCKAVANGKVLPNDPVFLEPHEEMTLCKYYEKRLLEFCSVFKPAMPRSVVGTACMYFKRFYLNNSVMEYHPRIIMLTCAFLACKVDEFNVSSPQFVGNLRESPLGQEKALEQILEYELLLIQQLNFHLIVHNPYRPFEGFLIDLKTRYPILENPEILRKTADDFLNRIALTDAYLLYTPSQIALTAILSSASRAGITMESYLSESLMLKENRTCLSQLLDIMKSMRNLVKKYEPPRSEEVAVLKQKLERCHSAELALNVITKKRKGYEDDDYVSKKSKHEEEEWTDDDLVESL
T3 sequence (P51948 whole entry partner): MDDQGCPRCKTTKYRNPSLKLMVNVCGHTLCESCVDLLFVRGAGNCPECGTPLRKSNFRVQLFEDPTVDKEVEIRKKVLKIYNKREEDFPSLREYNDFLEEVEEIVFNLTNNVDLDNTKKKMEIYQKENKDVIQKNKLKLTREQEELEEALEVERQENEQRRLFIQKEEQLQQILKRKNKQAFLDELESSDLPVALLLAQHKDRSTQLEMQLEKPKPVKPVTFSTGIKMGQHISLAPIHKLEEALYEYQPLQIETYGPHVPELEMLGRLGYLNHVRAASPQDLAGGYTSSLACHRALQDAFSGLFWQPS
T1 sequence (P50750 whole entry): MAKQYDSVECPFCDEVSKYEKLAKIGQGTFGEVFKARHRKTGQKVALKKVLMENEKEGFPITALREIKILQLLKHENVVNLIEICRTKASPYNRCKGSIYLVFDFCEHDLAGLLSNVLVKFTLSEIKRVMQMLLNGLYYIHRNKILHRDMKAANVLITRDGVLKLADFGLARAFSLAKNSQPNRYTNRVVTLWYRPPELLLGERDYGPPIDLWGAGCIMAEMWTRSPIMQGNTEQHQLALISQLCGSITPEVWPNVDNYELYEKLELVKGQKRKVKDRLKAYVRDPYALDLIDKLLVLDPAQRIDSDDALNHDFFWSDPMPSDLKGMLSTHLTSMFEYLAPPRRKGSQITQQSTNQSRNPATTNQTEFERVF
T1 sequence (O60563 whole entry partner): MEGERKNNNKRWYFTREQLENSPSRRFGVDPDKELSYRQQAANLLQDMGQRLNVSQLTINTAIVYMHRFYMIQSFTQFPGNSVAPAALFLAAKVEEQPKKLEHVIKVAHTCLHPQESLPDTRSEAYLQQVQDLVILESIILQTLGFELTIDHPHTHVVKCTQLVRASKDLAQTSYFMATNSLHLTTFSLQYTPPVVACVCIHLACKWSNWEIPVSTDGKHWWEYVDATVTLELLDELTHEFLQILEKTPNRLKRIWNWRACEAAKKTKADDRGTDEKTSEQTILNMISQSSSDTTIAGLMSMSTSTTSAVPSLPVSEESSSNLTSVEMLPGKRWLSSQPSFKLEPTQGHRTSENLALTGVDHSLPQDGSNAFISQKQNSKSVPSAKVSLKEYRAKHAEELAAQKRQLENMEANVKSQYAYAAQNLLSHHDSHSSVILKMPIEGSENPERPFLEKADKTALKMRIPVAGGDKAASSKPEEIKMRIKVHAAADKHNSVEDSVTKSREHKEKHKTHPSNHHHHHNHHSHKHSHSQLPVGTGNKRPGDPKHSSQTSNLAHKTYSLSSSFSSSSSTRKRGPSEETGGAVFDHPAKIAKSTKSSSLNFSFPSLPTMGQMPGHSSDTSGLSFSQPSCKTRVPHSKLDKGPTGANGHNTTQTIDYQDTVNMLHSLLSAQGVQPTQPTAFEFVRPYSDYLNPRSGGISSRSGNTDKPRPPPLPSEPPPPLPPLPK
T2 sequence (P50750 whole entry): as the sequence (P50750 whole entry) above
T2 sequence (O75909 1-357 isoform O75909-1 partner): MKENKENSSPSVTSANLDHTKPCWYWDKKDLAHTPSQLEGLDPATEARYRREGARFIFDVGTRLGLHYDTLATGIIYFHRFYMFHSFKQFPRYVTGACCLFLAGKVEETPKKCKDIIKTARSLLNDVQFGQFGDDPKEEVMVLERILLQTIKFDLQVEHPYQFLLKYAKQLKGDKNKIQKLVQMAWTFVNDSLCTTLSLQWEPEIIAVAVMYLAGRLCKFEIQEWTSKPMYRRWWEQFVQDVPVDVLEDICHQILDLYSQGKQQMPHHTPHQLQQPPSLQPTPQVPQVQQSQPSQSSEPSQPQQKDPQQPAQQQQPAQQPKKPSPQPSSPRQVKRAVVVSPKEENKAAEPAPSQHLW

For `COCC1CCCCN1c1ncnc(Nc2cccc(CS(N)(=O)=O)c2)n1` (racemic) [Compound B4, rac-3-[(4-(2-Methoxymethylpiperidin-1-yl)-1,3,5-triazin-2-yl)amino]-benzenemethanesulfonamide], the pKd on CDK9/Cyclin T1 was 6.00 to 7.00; at CDK9/Cyclin K, 6.00 to 7.00; on CDK7/CyclinH/MAT1 it was less than 5.00.

As for `CC(C)(C)OC(=O)NCC1CCCCN1c1ncnc(Nc2cccc(CS(N)(=O)=O)c2)n1` (racemic) [Compound B7, rac-tert-Butyl[(1-(4-((3-(Sulfamoylmethyl)phenyl)amino)-1,3,5-triazin-2-yl)piperidine-2-yl)methyl]carbamate], the pKd at CDK9/Cyclin T1, on CDK9/Cyclin K and at CDK7/CyclinH/MAT1 was less than 5.00 in each case.

In the case of `NS(=O)(=O)Cc1cccc(Nc2ncnc(N3CCCCC3c3ccccc3)n2)c1` (racemic) [Compound B9, rac-3-[(4-(2-Phenylpiperidin-1-yl)-1,3,5-triazin-2-yl)amino]-benzenemethanesulfonamide], the pKd at CDK9/Cyclin T1 is 6.00 to 7.00; on CDK9/Cyclin K, 6.00 to 7.00; on CDK7/CyclinH/MAT1 it was less than 5.00.

Take `NS(=O)(=O)Cc1cccc(Nc2ncnc(N3CCNCC3CO)n2)c1` (racemic) [Compound B13, rac-3-[(4-(2-(Hydroxymethyl)piperazin-1-yl)-1,3,5-triazin-2-yl)amino]benzenemethanesulfonamide]: the pKd at CDK9/Cyclin T1 and at CDK9/Cyclin K was less than 5.00 in each case.

In the case of `NS(=O)(=O)Cc1cccc(Nc2ncnc(N3CCCC3Cc3ccccc3)n2)c1` (racemic) [Compound B26, rac-3-[(4-(2-Benzylpyrrolidin-1-yl)-1,3,5-triazin-2-yl)amino]-benzenemethanesulfonamide], the pKd is 6.00 to 7.00 at CDK9/Cyclin T1, 6.00 to 7.00 at CDK9/Cyclin K and less than 5.00 on CDK7/CyclinH/MAT1.

In the case of `NS(=O)(=O)Cc1cccc(Nc2ncnc(N3CCCC3CCc3ccccc3)n2)c1` (racemic) [Compound B27, rac-3-[(4-(2-(2-Phenylethyl)pyrrolidin-1-yl)-1,3,5-triazin-2-yl)amino]-benzenemethanesulfonamide], the results for the pKd on CDK9/Cyclin T1, on CDK9/Cyclin K and on CDK7/CyclinH/MAT1 were 5.00 to 6.00, 5.00 to 6.00 and less than 5.00, respectively.

On to `NS(=O)(=O)Cc1cccc(Nc2ncnc(N3CCC3c3ccccc3)n2)c1` (racemic) [Compound B37, rac-3-[(4-(2-Phenylazetidin-1-yl)-1,3,5-triazin-2-yl)amino]-benzenemethanesulfonamide], for which the pKd is 6.00 to 7.00 on CDK9/Cyclin T1, 6.00 to 7.00 at CDK9/Cyclin K and less than 5.00 at CDK7/CyclinH/MAT1.

Regarding `NS(=O)(=O)Cc1cccc(Nc2ncnc(N3CCC(F)(F)CC3)n2)c1` [Compound B2, 3-[(4-(4,4-Difluoropiperidin-1-yl)-1,3,5-triazin-2-yl)amino]-benzenemethanesulfonamide], the pKd on CDK9/Cyclin T1 is 6.00 to 7.00; at CDK9/Cyclin K, 6.00 to 7.00; on CDK7/CyclinH/MAT1 it was less than 5.00.

`NS(=O)(=O)Cc1cccc(Nc2ncnc(N3CCCC(F)(F)C3)n2)c1` [Compound B3, 3-[(4-(3,3-Difluoropiperidin-1-yl)-1,3,5-triazin-2-yl)amino]-benzenemethanesulfonamide]: the pKd at CDK9/Cyclin T1 was 6.00 to 7.00; on CDK9/Cyclin K, 6.00 to 7.00; at CDK7/CyclinH/MAT1, less than 5.00.

`COC(=O)[C@H]1CCCCN1c1ncnc(Nc2cccc(CS(N)(=O)=O)c2)n1` [Compound B6, (R)-Methyl 1-[4-((3-(Sulfamoylmethyl)phenyl)amino)-1,3,5-triazin-2-yl]piperidine-2-carboxylate]: the pKd at CDK9/Cyclin T1 was more than 7.00; at CDK9/Cyclin K, 6.00 to 7.00; on CDK7/CyclinH/MAT1 it was less than 5.00.

Regarding `NS(=O)(=O)Cc1cccc(Nc2ncnc(N3CCNCC3)n2)c1` [Compound B11, 3-[(4-(piperazin-1-yl)-1,3,5-triazin-2-yl)amino]benzenemethane sulfonamide], the pKd on CDK9/Cyclin T1, on CDK9/Cyclin K and at CDK7/CyclinH/MAT1 was less than 5.00 each time.

Turning to `CN1CCN(c2ncnc(Nc3cccc(CS(N)(=O)=O)c3)n2)CC1` [Compound B12, 3-[(4-(4-Methylpiperazin-1-yl)-1,3,5-triazin-2-yl)amino]-benzenemethanesulfonamide], the pKd at CDK9/Cyclin T1, at CDK9/Cyclin K and on CDK7/CyclinH/MAT1 was less than 5.00 in each case.

With `NS(=O)(=O)Cc1cccc(Nc2ncnc(N3CCCC3)n2)c1` [Compound B14, 3-[(4-(Pyrrolidin-1-yl)-1,3,5-triazin-2-yl)amino]benzenemethane sulfonamide], the pKd is 6.00 to 7.00 at CDK9/Cyclin T1, 5.00 to 6.00 at CDK9/Cyclin K and less than 5.00 on CDK7/CyclinH/MAT1.

Consider `C[C@@H]1CCCN1c1ncnc(Nc2cccc(CS(N)(=O)=O)c2)n1` [Compound B15, (R)-3-[(4-(2-Methylpyrrolidin-1-yl)-1,3,5-triazin-2-yl)amino]-benzenemethanesulfonamide], for which the values for the pKd at CDK9/Cyclin T1, on CDK9/Cyclin K and at CDK7/CyclinH/MAT1 were 6.00 to 7.00, 5.00 to 6.00 and less than 5.00, respectively.

Turning to `NS(=O)(=O)Cc1cccc(Nc2ncnc(N3CCC[C@H]3C(F)(F)F)n2)c1` [Compound B16, (S)-3-[(4-(2-(Trifluoromethyl)pyrrolidin-1-yl)-1,3,5-triazin-2-yl)amino]-benzenemethanesulfonamide], the values for the pKd on CDK9/Cyclin T1, at CDK9/Cyclin K and at CDK7/CyclinH/MAT1 were 6.00 to 7.00, 5.00 to 6.00 and less than 5.00, respectively.

`COC[C@H]1CC[C@H](COC)N1c1ncnc(Nc2cccc(CS(N)(=O)=O)c2)n1` [Compound B19, 3-[(4-((2R,5R)-Bis(methoxymethyl)pyrrolidin-1-yl)-1,3,5-triazin-2-yl)amino]benzenemethanesulfonamide]: the pKd at CDK9/Cyclin T1, on CDK9/Cyclin K and at CDK7/CyclinH/MAT1 was less than 5.00 in each case.

Regarding `COC[C@@H]1CC[C@@H](COC)N1c1ncnc(Nc2cccc(CS(N)(=O)=O)c2)n1` [Compound B20], the pKd on CDK9/Cyclin T1, on CDK9/Cyclin K and at CDK7/CyclinH/MAT1 was less than 5.00 throughout.

Regarding `COC(=O)[C@@H]1CCCN1c1ncnc(Nc2cccc(CS(N)(=O)=O)c2)n1` [Compound B22, (S)-Methyl 1-[4-((3-(Sulfamoylmethyl)phenyl)amino)-1,3,5-triazin-2-yl]pyrrolidine-2-carboxylate], the pKd at CDK9/Cyclin T1, at CDK9/Cyclin K and at CDK7/CyclinH/MAT1 was less than 5.00 throughout.

Regarding `NC(=O)[C@H]1CCCN1c1ncnc(Nc2cccc(CS(N)(=O)=O)c2)n1` [Compound B23, (R)-1-[4-((3-(Sulfamoylmethyl)phenyl)amino)-1,3,5-triazin-2-yl]pyrrolidine-2-carboxamide], the pKd on CDK9/Cyclin T1, on CDK9/Cyclin K and at CDK7/CyclinH/MAT1 was less than 5.00 throughout.

For the compound `NS(=O)(=O)Cc1cccc(Nc2ncnc(N3CCC[C@@H]3COc3ccccc3)n2)c1` [Compound B28, (R)-3-[(4-(2-(Phenoxymethyl)pyrrolidin-1-yl)-1,3,5-triazin-2-yl)amino]-benzenemethanesulfonamide], the pKd was 5.00 to 6.00 at CDK9/Cyclin T1, 5.00 to 6.00 on CDK9/Cyclin K and less than 5.00 on CDK7/CyclinH/MAT1.

As for `NS(=O)(=O)Cc1cccc(Nc2ncnc(N3CCC[C@@H]3CNc3ccccc3)n2)c1` [Compound B29, (R)-3-[(4-(2-(Phenylamino-methyl)pyrrolidin-1-yl)-1,3,5-triazin-2-yl)amino]benzenemethanesulfonamide], the pKd was 5.00 to 6.00 on CDK9/Cyclin T1, 5.00 to 6.00 at CDK9/Cyclin K and less than 5.00 at CDK7/CyclinH/MAT1.
